The values below come from PMC11342919 (RSC Advances, 2024).

Structures are written as SMILES.

The conditions of experiment [1]: after 2 h.
The next experiment relates to M^pro. Conditions: at 100 μM; cited from earlier work.

For `CCCCCCNC(=O)n1cc(F)c(=O)[nH]c1=O` [Carmofur], the “starting material consumed by cysteine” value in experiment [1] is recorded as 75%. Take `C=C(CC)C(=O)c1ccc(OCC(=O)O)c(Cl)c1Cl` [EA, ethacrynic acid]: the “inhibition of M^pro” value with M^pro is recorded as “approximately 20%”.
